Broadly, the pIC50 is −log10 of the IC50, conventionally taken in molar units.

The record followed here is ChEMBL document CHEMBL3352358, “Discovery of 2-(cyclohexylmethylamino)pyrimidines as a new class of reversible valosine containing protein inhibitors” (J Med Chem, 2014).

Structures are written as SMILES. pIC50: −log10 of the molar value.

The target in assay [1] is Transitional endoplasmic reticulum ATPase (Homo sapiens, UniProt P55072). Nature of the assay: biochemical. Format: cell-based.
Description: Inhibition of human full length VCP (2 to 806 residues) expressed in High5 insect cells assessed as reduction in ATPase activity by measuring ADP formation by NADH coupled assay
The nature of assay [2]: Inhibition of cell proliferation of human HCT116 cells after 72 hrs by thermostable firefly luciferase based assay. Format: functional, HCT-116. Conditions: Homo sapiens, HCT-116, 72 h; read-out: IC50.

Sequence of Transitional endoplasmic reticulum ATPase (P55072 whole entry): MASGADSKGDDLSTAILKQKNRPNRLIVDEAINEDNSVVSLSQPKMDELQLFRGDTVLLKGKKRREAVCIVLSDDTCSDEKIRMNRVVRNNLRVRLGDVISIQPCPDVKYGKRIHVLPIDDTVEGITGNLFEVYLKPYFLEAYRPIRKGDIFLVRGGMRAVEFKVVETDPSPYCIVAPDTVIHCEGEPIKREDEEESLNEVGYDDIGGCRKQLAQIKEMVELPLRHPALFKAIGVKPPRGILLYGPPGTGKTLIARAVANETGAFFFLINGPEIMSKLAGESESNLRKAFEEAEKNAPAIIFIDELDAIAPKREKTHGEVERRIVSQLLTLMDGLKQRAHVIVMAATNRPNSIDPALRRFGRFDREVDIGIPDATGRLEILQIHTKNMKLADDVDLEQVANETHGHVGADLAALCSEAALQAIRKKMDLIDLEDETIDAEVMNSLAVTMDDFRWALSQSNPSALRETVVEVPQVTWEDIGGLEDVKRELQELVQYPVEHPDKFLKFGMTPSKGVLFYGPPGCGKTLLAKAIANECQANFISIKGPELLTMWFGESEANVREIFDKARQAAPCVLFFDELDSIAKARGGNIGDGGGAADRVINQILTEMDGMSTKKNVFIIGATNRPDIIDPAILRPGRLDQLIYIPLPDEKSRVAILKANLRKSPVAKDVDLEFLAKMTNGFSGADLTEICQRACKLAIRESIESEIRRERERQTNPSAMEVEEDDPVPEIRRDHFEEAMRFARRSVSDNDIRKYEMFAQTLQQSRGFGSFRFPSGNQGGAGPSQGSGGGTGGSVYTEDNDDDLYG

Turning to `COc1cccc(-c2cc(NCc3ccccc3)nc(NC[C@H]3CC[C@H](C(N)=O)CC3)n2)c1`, the negative-log IC50 (pIC50) in assay [1] was 6.83; in assay [2], 5.18.
The corresponding values for `O=C(O)[C@H]1CC[C@H](CNc2nc(NCc3ccccc3)cc(-c3ccccc3)n2)CC1` are 7.57 and under 4.70.
For `NC(=O)[C@H]1CC[C@H](CNc2nc(NCc3ccccc3)cc(-c3ccccc3)n2)CC1`, the pIC50 in assay [1] is 6.90; in assay [2], 5.02.
In the same order, the values of `CNC(=O)[C@H]1CC[C@H](CNc2nc(NCc3ccccc3)cc(-c3ccccc3)n2)CC1` are 6.35 and 5.03.
The corresponding values for `CS(=O)(=O)NC(=O)[C@H]1CC[C@H](CNc2nc(NCc3ccccc3)cc(-c3ccccc3)n2)CC1` are 6.88 and under 4.70.
In the case of `O=C(NS(=O)(=O)C(F)(F)F)[C@H]1CC[C@H](CNc2nc(NCc3ccccc3)cc(-c3ccccc3)n2)CC1`, the results for the pIC50 in assay [1] and in assay [2] were 6.58 and under 4.70, respectively.
As to `NNC(=O)[C@H]1CC[C@H](CNc2nc(NCc3ccccc3)cc(-c3ccccc3)n2)CC1`, the pIC50 was 6.01 in assay [1] and under 4.70 in assay [2].
Regarding `NC(=O)[C@H]1CC[C@H](CNc2nc(NCc3ccccc3)cc(-c3ccccc3F)n2)CC1`, the values for the pIC50 in assay [1] and in assay [2] were 7.34 and under 5.00, respectively.
For `CC(=O)c1cccc(-c2cc(NCc3ccccc3)nc(NC[C@H]3CC[C@H](C(N)=O)CC3)n2)c1`, the figures for the pIC50 in assay [1] and in assay [2] were 7.06 and 5.18, respectively.
For the compound `NC(=O)[C@H]1CC[C@H](CNc2nc(NCc3ccccc3)cc(-c3cccc(O)c3)n2)CC1`, the pIC50 in assay [1] was 6.97; in assay [2] it was under 5.00.
In the case of `NC(=O)[C@H]1CC[C@H](CNc2nc(NCc3ccccc3)cc(-c3cccc(CO)c3)n2)CC1`, the pIC50 in assay [1] was 6.87; in assay [2], under 5.00.
With `Cc1cccc(-c2cc(NCc3ccccc3)nc(NC[C@H]3CC[C@H](C(N)=O)CC3)n2)c1`, the pIC50 in assay [1] is 6.74; in assay [2], 5.38.
`NC(=O)[C@H]1CC[C@H](CNc2nc(NCc3ccccc3)cc(-c3cccc(C(F)(F)F)c3)n2)CC1`: the values for the pIC50 in assay [1] and in assay [2] were 6.63 and 5.10, respectively.
On to `CC(=O)Nc1ccc(-c2cc(NCc3ccccc3)nc(NC[C@H]3CC[C@H](C(N)=O)CC3)n2)cc1`, for which the pIC50 in assay [1] is 7.23; in assay [2], 5.37.
`NC(=O)[C@H]1CC[C@H](CNc2nc(NCc3ccccc3)cc(-c3ccc(CO)cc3)n2)CC1`: the pIC50 in assay [1] is 7.05; in assay [2] it was 5.10.
